Columns and labels:
Type in all cases: cell-based
human cancer cells = assay: NCI screen summary over the cancers tested (negative growth of human cancer cells); details: cancers with negative growth / cancers tested
Method: (§1) In the NCI screening process, each compound was tested and described by a minimum of 60 data points. The test data include, but are not limited to the type of cancer, the molar concentration used in the screen, and the percent growth of the cancer. In some cases, NMR and elemental analysis were used for structural assignment.
The derivatives in the tables are grouped using the same category as in the tables 1-6.

SF-295 = assay: NCI screen, growth of human tumor cells: CNS Cancer SF-295
How it was run: (§2)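 Under the NCI protocol, every compound is profiled with sixty or more data points. Each point ties a cancer type and a molar screening concentration to a percent growth value.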

SU-DAL-7 = assay: NCI screen, growth of human tumor cells: Lymphoma SU-DAL-7; details: SU-DAL-7, 10^−4 molar
KD488 = assay: NCI screen, growth of human tumor cells: Lymphoma KD488
SR = assay: NCI screen, growth of human tumor cells: Leukemia SR; details: SR
How it was run: as §2

SNB-75 = assay: NCI screen, growth of human tumor cells: CNS Cancer SNB-75; details: SNB-75 (CNS Cancer), 10^−4 molar
How it was run: as §2

HOP-18 = assay: NCI screen, growth of human tumor cells: Non-Small Cell Lung HOP-18; details: HOP-18 (Non-Small Cell Lung), 10^−4 molar
Method: as §1

HS 578T = assay: NCI screen, growth of human tumor cells: Breast Cancer HS 578T; details: HS 578T (Breast Cancer), 10^−4 molar
How it was run: as §2

SK-MEL-28 = assay: NCI screen, growth of human tumor cells: Melanoma SK-MEL-28; details: SK-MEL-28, 10^−4 molar
How it was run: as §2

UACC-62 = assay: NCI screen, growth of human tumor cells: Melanoma UACC-62; details: UACC-62 (Melanoma), 10^−4 molar
How it was run: as §2

OVCAR-8 = assay: NCI screen, growth of human tumor cells: Ovarian Cancer OVCAR-8; details: OVCAR-8 (Ovarian Cancer), 10^−4 molar
Method: as §1

CAKI-1 = assay: NCI screen, growth of human tumor cells: Renal Cancer CAKI-1; details: CAKI-1 (Renal Cancer), 10^−4 molar
How it was run: as §2

HT29 = assay: NCI screen, growth of human tumor cells: Colon Cancer HT29; details: HT29 (Colon Cancer), 10^−4 molar
How it was run: as §2

KM12 = assay: NCI screen, growth of human tumor cells: Colon Cancer KM12; details: KM12 (Colon Cancer), 10^−4 molar
How it was run: as §2

SK-OV-3 = assay: NCI screen, growth of human tumor cells: Ovarian Cancer SK-OV-3; details: SK-OV-3 (Ovarian Cancer), 10^−4 molar
Method: as §1

M14 = assay: NCI screen, growth of human tumor cells: Melanoma M14; details: M14, 10^−4 molar
How it was run: as §2

NCI-H23 = assay: NCI screen, growth of human tumor cells: Non-Small Cell Lung NCI-H23; details: NCI-H23, 10^−4 molar
How it was run: as §2

COLO205 = assay: NCI screen, growth of human tumor cells: Colon Cancer COLO205; details: COLO205 (Colon Cancer), 10^−4 molar
How it was run: as §2

DU-145 = assay: NCI screen, growth of human tumor cells: Prostate Cancer DU-145; details: DV-145, 10^−4 molar
How it was run: as §2

UO-31 = assay: NCI screen, growth of human tumor cells: Renal Cancer UO-31; details: UO-31 (Renal Cancer), 10^−4 molar
How it was run: as §2

SK-MEL-5 = assay: NCI screen, growth of human tumor cells: Melanoma SK-MEL-5; details: SK-MEL-5, 10^−4 molar
How it was run: as §2

MCF7/ADR-RES = assay: NCI screen, growth of human tumor cells: Breast Cancer MCF7/ADR-RES; details: MCF7/ADR-RES, 10^−4 molar
How it was run: as §2

SNB-19 = assay: NCI screen, growth of human tumor cells: CNS Cancer SNB-19; details: SNB-19, 10^−4 molar
How it was run: as §2

IGROVI = assay: NCI screen, growth of human tumor cells: Ovarian Cancer IGROVI; details: IGROVI (Ovarian Cancer), 10^−4 molar
How it was run: as §2

MOLT-4 = assay: NCI screen, growth of human tumor cells: Leukemia MOLT-4; details: MOLT-4 (Leukemia), 10^−4 molar
How it was run: as §2

SF-268 = assay: NCI screen, growth of human tumor cells: CNS Cancer SF-268; details: SF-268 (CNS Cancer), 10^−4 molar
How it was run: as §2

EKVX = assay: NCI screen, growth of human tumor cells: Non-Small Cell Lung EKVX; details: EKVX (Non-Small Cell Lung), 10^−4 molar
How it was run: as §2

HOP-92 = assay: NCI screen, growth of human tumor cells: Non-Small Cell Lung HOP-92; details: HOP-92 (Non-Small Cell Lung), 10^−4 molar
How it was run: as §2

OVCAR-3 = assay: NCI screen, growth of human tumor cells: Ovarian Cancer OVCAR-3; details: OVCAR-3 (Ovarian Cancer), 10^−4 molar
How it was run: as §2

UACC-257 = assay: NCI screen, growth of human tumor cells: Melanoma UACC-257
How it was run: as §2

MCF 7 = assay: NCI screen, growth of human tumor cells: Breast Cancer MCF 7; details: MCF 7 (Breast Cancer), 10^−4 molar
How it was run: as §2

TK-10 = assay: NCI screen, growth of human tumor cells: Renal Cancer TK-10; details: TK-10 (Renal Cancer), 10^−4 molar
Method: as §1

NCI-H322M = assay: NCI screen, growth of human tumor cells: Non-Small Cell Lung NCI-H322M; details: NCI-H322M, 10^−4 molar
How it was run: as §2

SN12C = assay: NCI screen, growth of human tumor cells: Renal Cancer SN12C; details: SN12C (Renal Cancer), 10^−4 molar
How it was run: as §2

SF-539 = assay: NCI screen, growth of human tumor cells: CNS Cancer SF-539; details: SF-539, 10^−4 molar
How it was run: as §2

NCI-H226 = assay: NCI screen, growth of human tumor cells: Non-Small Cell Lung NCI-H226; details: NCI-H226 (Non-Small Cell Lung), 10^−4 molar
How it was run: as §2

HOP-62 = assay: NCI screen, growth of human tumor cells: Non-Small Cell Lung HOP-62
How it was run: as §2

NCI-H460 = assay: NCI screen, growth of human tumor cells: Non-Small Cell Lung NCI-H460; details: NCI-H460 (Non-Small Cell Lung), 10^−4 molar
How it was run: as §2

BT-549 = assay: NCI screen, growth of human tumor cells: Breast Cancer BT-549; details: BT-549 (Breast Cancer), 10^−4 molar
How it was run: as §2

SK-MEL-2 = assay: NCI screen, growth of human tumor cells: Melanoma SK-MEL-2; details: SK-MEL-2 (Melanoma), 10^−4 molar
How it was run: as §2

MDA-MB-435 = assay: NCI screen, growth of human tumor cells: Breast Cancer MDA-MB-435
How it was run: as §2

HCT-116 = assay: NCI screen, growth of human tumor cells: Colon Cancer HCT-116; details: HCT-116, 10^−4 molar
How it was run: as §2

RPMI-8226 = assay: NCI screen, growth of human tumor cells: Leukemia RPMI-8226; details: RPMI-8226 (Leukemia), 10^−4 molar
How it was run: as §2

K562 = assay: NCI screen, growth of human tumor cells: Leukemia K562; details: K562 (Leukemia), 10^−4 molar
How it was run: as §2

RXF-393 = assay: NCI screen, growth of human tumor cells: Renal Cancer RXF-393; details: RXF-393 (Renal Cancer), 10^−4 molar
How it was run: as §2

HL-60 (TB) = assay: NCI screen, growth of human tumor cells: Leukemia HL-60 (TB); details: HL-60 (TB) (Leukemia), 10^−4 molar
Method: as §1

OVCAR-5 = assay: NCI screen, growth of human tumor cells: Ovarian Cancer OVCAR-5
How it was run: as §2

Structure (SMILES): O=C(c1cccc2ccccc12)C1S(=O)(=O)OCCOS1(=O)=O [NSC 679047, ethylene 1-naphthoylmethanedisulfonate]
- Percentage of cancers showing negative growth cancers tested (human cancer cells; 10^−4 M conc.): 10^−4 M conc. = 1/3 = 33%
- % Growth (SF-295; SF-295, 10^−4 molar): −53%
- % Growth (SF-295; SF-295, 10^−5 molar): −50%
- % Growth (SF-295; SF-295, 10^−6 molar): −54%
- % Growth (SF-295; SF-295, 10^−7 molar): −44%
- % Growth (SF-295; SF-295, 10^−8 molar): 70%
- % Growth (SU-DAL-7): 42%
- % Growth (KD488; KD488, 10^−4 molar): 29%
- % Growth (KD488; KD488, 10^−5 molar): 45%
- % Growth (KD488; KD488, 10^−6 molar): 56%
- % Growth (KD488; KD488, 10^−7 molar): 71%
- % Growth (KD488; KD488, 10^−8 molar): 78%

Structure (SMILES): CC=CC(=O)C1(CC2=C(C)C(=O)c3ccccc3C2=O)S(=O)(=O)OCCOS1(=O)=O [NSC 731265]
- % Growth (SR; 10^−4 molar): 12%
- % Growth (SR; 10^−5 molar): 15%
- % Growth (SR; 10^−6 molar): 57%
- percent of growth of human tumor cells (SNB-75): −26%
- percent of growth of human tumor cells (HOP-18): −43%
- percent of growth of human tumor cells (HS 578T): −18%
- % Growth (SK-MEL-28): −69%
- percent of growth of human tumor cells (UACC-62): −13%
- percent of growth of human tumor cells (OVCAR-8): −38%
- percent of growth of human tumor cells (CAKI-1): −2%
- percent of growth of human tumor cells (HT29): −6%
- percent of growth of human tumor cells (KM12): −16%
- percent of growth of human tumor cells (SK-OV-3): −61%
- % Growth (M14): −86%
- % Growth (NCI-H23): −74%
- percent of growth of human tumor cells (COLO205): −50%
- % Growth (DU-145): −78%
- percent of growth of human tumor cells (UO-31): −10%
- % Growth (SK-MEL-5): −67%
- % Growth (MCF7/ADR-RES): −53%
- % Growth (SNB-19): −87%
- percent of growth of human tumor cells (IGROVI): 4%
- percent of growth of human tumor cells (MOLT-4): 2%
- percent of growth of human tumor cells (SF-268): −49%
- percent of growth of human tumor cells (EKVX): −57%
- Percentage of cancers showing negative growth cancers tested (human cancer cells; 10^−4 M conc.): 79%
- Percentage of cancers showing negative growth cancers tested (human cancer cells; 10^−5 M conc.): 20%
- percent of growth of human tumor cells (HOP-92): −43%
- percent of growth of human tumor cells (OVCAR-3): 7%
- % Growth (UACC-257; UACC-257, 10^−4 molar): −87%
- % Growth (UACC-257; UACC-257, 10^−5 molar): 40%
- percent of growth of human tumor cells (MCF 7): −8%
- percent of growth of human tumor cells (TK-10): −10%
- % Growth (NCI-H322M): −80%
- percent of growth of human tumor cells (SN12C): −17%
- % Growth (SF-539): −79%
- percent of growth of human tumor cells (NCI-H226): −4%
- % Growth (HOP-62; HOP-62, 10^−4 molar): −80%
- % Growth (HOP-62; HOP-62, 10^−5 molar): 49%
- percent of growth of human tumor cells (NCI-H460): 5%
- percent of growth of human tumor cells (BT-549): −54%
- percent of growth of human tumor cells (SF-295; SF-295 (CNS Cancer), 10^−4 molar): −57%
- percent of growth of human tumor cells (SK-MEL-2): 15%
- % Growth (MDA-MB-435; MDA-MB-435, 10^−4 molar): −71%
- % Growth (MDA-MB-435; MDA-MB-435, 10^−5 molar): −66%
- % Growth (HCT-116): −100%
- percent of growth of human tumor cells (RPMI-8226): −40%
- percent of growth of human tumor cells (K562): 11%
- percent of growth of human tumor cells (RXF-393): −15%
- percent of growth of human tumor cells (HL-60 (TB)): 2%
- % Growth (OVCAR-5; OVCAR-5, 10^−4 molar): −83%
- % Growth (OVCAR-5; OVCAR-5, 10^−5 molar): 43%
- % Growth (OVCAR-5; OVCAR-5, 10^−6 molar): 34%
- % Growth (OVCAR-5; OVCAR-5, 10^−7 molar): 40%
- % Growth (OVCAR-5; OVCAR-5, 10^−8 molar): 63%
